Laboratory results reported in patent US8217028B2, “1,2,4-oxadiazole indole compounds” (Glaxo Group Limited, priority 2008, dated 2012).
pEC50: −log10 of the molar value.

Biological target: T1, human S1P1 receptor (EDG1) (Homo sapiens, UniProt P21453)
T1 construct: expressed in transfected cells; host or cells: rat hepatoma cells (membranes, GTPγS assay) or Tango GPCR-bla U2OS cells (Tango assay)
Assay: S1P1 GTPγS assay or S1P1 Tango assay (at least one of the above assays)
Format: cell-based
Conditions: in at least one of the S1P1 GTPγS and S1P1 Tango assays
Experimental: For membrane preparations all steps were performed at 4° C. Rat hepatoma cells stably expressing the human S1P1 receptor or Rat Basophilic Leukaemia cells (RBL) stably expressing human S1P3 receptor were grown to 80% confluency before being harvested into 10 ml Phospho-Buffered Saline (PBS) and centrifuged at 1200 rpm for 5 minutes. After removal of the supernatant, the pellet was re-suspended and cells were homogenised within a glass Warning blender for 2 bursts of 15 secs in 200 mls of buffer (50 mM HEPES, 1 mM leupeptin, 25 μg/ml bacitracin, 1 mM EDTA, 1 mM PMSF, 2 μM pepstatin A). The blender was plunged into ice for 5 mins after the first burst and 10-40 mins after the final burst to allow foam to dissipate. The material was then spun at 500 g for 20 mins and the supernatant spun for 36 mins at 48,000 g. The pellet was resuspended in the same buffer as above but without PMSF and pepstatin A. The material was then forced through a 0.6 mm needle, made up to the required volume, (usually ×4 the volume of the original cell pellet), aliquoted and stored frozen at −80° C.
Human S1P1 rat hepatoma membranes (1.5 μg/well) were adhered to a wheatgerm agglutinin (WGA)-coated scintillation proximity assay (SPA) beads (0.125 mg/well) in assay buffer (HEPES 20 mM, MgCl2 10 mM, NaCl 100 mM and pH adjusted to 7.4 using KOH 5M, GDP 10 μM FAC (final assay concentration) and saponin 90 μg/ml FAC was also added).
After 30 minutes pre-coupling on ice the bead and membrane suspension was dispensed into a white Greiner polypropylene LV384-well plate (5 μl/well), containing 0.1 μl of the compound. 5 μl/well [^35S]-GTPγS (0.5 nM final radioligand conc) made up in assay buffer was then added to agonist plates. The final assay cocktail (10.1 μl) was then centrifuged at 1000 rpm for 5 minutes then read immediately on a Viewlux reader.
All test compounds were dissolved in DMSO at a concentration of 10 mM and were prepared in 100% DMSO using a 1 in 4 dilution step to provide 11 point dose response curves. The dilutions were transferred to the assay plates ensuring that the DMSO concentration was constant across the plate for all assays. All data was normalized to the mean of 16 high and 16 low control wells on each plate. A four parameter curve fit was then applied.
Recombinant EDG1-bla/U2OS cells (contain the human Endothelial Differentiation Gene 1 (EDG1) linked to a TEV protease site and a Ga14-VP16 transcription factor stably integrated into the Tango GPCR-bla U2OS parental cell line) were suspended in assay medium (Invitrogen Freestyle Expression Medium) at a density of 312, 500 cells/ml. Add 100 μl/well of the assay medium to the cell-free control wells (column 12) and 100 μl/well of the cell suspension to the test compound wells (row 2-8, column 1-10), the unstimulated control wells (DMSO) (column 11), and stimulated control wells (S1P) (row 1, column 1-10) in a Corning black-well, clear bottom 96-well plate. Cells were incubated at 37° C., 5% CO2 for 44-48 h. […]
After incubation at 37° C., 5% CO2 for 5 h, 25 μl of 6× substrate mixture (6 μl Solution A (1 mg LiveBLAzer™-FRET B/G substrate (CCF4-AM) in 912 μl DMSO) plus 60 μl Solution B plus 934 μl Solution C) was added to each well and incubate at room temperature for 2 h in dark. The plate was finally read on EnVision for two emission channels (460 nm and 530 nm). […]

T1 sequence (P21453 whole entry): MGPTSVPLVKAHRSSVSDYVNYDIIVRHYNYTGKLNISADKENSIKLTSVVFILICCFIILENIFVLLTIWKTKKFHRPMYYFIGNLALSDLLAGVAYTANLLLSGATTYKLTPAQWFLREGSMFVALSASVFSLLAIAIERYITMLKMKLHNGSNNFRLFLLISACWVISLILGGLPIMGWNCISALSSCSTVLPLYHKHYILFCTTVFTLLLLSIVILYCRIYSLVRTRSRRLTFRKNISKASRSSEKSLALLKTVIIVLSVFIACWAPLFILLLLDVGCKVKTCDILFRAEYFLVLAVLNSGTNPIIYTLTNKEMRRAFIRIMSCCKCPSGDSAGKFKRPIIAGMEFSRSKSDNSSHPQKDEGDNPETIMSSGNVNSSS

In the case of CC(C)Oc1ccc(-c2nc(-c3ccc4[nH]c(C(=O)O)cc4c3)no2)cc1Cl [Example 8, Sodium 5-(5-{3-chloro-4-[(1-methylethyl)oxy]phenyl}-1,2,4-oxadiazol-3-yl)-1H-indole-2-carboxylate], the pEC50 was greater than 5.00.
In the case of CC(C)Oc1ncc(-c2nc(-c3ccc4c(CN5CCC(C(=O)O)CC5)c[nH]c4c3)no2)cc1Cl [Example 78, 1-{[6-(5-{5-chloro-6-[(1-methylethyl)oxy]-3-pyridinyl}-1,2,4-oxadiazol-3-yl)-1H-indol-3-yl]methyl}-4-piperidinecarboxylic acid], the pEC50 was greater than 5.00.
In the case of CC(C)Cn1cc(CCC(=O)O)c2cccc(-c3noc(-c4ccc(OC(C)C)c(Cl)c4)n3)c21 [Example 30, 3-[7-(5-{3-chloro-4-[(1-methylethyl)oxy]phenyl}-1,2,4-oxadiazol-3-yl)-1-(2-methylpropyl)-1H-indol-3-yl]propanoic acid], the pEC50 was greater than 5.00.
Molecule COc1ccc(-c2nc(-c3cccc4c(CCC(=O)O)cn(C)c34)no2)cc1OC [Example 44, 3-(7-{5-[3,4-bis(methyloxy)phenyl]-1,2,4-oxadiazol-3-yl}-1-methyl-1H-indol-3-yl)propanoic acid] has a pEC50 greater than 5.00.
Work on CCCCn1cc(CCC(=O)O)c2cccc(-c3noc(-c4ccc(OC(C)C)c(Cl)c4)n3)c21 [Example 29, 3-[1-butyl-7-(5-{3-chloro-4-[(1-methylethyl)oxy]phenyl}-1,2,4-oxadiazol-3-yl)-1H-indol-3-yl]propanoic acid] yielded a pEC50 greater than 5.00.
